Source: paper doi:10.1101/2023.11.24.568596v1 (biorxiv, 2023)

Experiments:
Details in all cases: binder
BRD4 = BRD4 (Homo sapiens, UniProt O60885)
CK2a2 = CK2a2 (Homo sapiens, UniProt P19784)
CaMK4 = biological target: T1, CaMK4 (Homo sapiens, UniProt Q16566)
T1 sequence (Q16566 1-473): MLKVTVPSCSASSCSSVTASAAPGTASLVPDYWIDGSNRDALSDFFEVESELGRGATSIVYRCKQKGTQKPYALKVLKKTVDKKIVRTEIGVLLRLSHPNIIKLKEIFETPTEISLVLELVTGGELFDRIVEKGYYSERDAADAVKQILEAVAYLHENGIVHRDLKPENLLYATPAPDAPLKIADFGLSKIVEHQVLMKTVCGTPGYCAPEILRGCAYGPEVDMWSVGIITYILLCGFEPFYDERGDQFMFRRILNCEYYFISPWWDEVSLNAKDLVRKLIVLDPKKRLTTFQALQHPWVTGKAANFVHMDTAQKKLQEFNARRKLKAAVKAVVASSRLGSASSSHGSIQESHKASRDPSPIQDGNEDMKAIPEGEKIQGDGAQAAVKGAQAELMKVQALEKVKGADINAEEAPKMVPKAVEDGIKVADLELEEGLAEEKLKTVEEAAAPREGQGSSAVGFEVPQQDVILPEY

DMPK1 = biological target: T2, DMPK1 (Homo sapiens, UniProt Q09013)
T2 sequence (Q09013 1-629): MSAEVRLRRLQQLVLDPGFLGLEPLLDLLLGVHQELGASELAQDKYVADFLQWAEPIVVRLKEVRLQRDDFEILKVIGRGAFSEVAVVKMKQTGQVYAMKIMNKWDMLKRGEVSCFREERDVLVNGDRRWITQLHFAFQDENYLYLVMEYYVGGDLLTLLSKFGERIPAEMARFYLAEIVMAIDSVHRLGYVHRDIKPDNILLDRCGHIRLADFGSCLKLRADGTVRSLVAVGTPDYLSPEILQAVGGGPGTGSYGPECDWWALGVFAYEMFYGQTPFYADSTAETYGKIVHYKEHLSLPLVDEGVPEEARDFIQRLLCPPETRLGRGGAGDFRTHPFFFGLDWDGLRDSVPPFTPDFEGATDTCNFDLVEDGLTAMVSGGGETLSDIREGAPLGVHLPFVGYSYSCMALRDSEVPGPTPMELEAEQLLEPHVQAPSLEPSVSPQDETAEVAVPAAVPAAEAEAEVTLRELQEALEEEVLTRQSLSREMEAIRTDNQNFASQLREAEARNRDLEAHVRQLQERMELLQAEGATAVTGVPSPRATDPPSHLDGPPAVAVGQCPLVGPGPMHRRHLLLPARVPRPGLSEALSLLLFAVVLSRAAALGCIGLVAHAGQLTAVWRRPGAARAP

MAP3K5 = biological target: T3, MAP3K5 (Homo sapiens, UniProt Q99683)
T3 sequence (Q99683 1-1374): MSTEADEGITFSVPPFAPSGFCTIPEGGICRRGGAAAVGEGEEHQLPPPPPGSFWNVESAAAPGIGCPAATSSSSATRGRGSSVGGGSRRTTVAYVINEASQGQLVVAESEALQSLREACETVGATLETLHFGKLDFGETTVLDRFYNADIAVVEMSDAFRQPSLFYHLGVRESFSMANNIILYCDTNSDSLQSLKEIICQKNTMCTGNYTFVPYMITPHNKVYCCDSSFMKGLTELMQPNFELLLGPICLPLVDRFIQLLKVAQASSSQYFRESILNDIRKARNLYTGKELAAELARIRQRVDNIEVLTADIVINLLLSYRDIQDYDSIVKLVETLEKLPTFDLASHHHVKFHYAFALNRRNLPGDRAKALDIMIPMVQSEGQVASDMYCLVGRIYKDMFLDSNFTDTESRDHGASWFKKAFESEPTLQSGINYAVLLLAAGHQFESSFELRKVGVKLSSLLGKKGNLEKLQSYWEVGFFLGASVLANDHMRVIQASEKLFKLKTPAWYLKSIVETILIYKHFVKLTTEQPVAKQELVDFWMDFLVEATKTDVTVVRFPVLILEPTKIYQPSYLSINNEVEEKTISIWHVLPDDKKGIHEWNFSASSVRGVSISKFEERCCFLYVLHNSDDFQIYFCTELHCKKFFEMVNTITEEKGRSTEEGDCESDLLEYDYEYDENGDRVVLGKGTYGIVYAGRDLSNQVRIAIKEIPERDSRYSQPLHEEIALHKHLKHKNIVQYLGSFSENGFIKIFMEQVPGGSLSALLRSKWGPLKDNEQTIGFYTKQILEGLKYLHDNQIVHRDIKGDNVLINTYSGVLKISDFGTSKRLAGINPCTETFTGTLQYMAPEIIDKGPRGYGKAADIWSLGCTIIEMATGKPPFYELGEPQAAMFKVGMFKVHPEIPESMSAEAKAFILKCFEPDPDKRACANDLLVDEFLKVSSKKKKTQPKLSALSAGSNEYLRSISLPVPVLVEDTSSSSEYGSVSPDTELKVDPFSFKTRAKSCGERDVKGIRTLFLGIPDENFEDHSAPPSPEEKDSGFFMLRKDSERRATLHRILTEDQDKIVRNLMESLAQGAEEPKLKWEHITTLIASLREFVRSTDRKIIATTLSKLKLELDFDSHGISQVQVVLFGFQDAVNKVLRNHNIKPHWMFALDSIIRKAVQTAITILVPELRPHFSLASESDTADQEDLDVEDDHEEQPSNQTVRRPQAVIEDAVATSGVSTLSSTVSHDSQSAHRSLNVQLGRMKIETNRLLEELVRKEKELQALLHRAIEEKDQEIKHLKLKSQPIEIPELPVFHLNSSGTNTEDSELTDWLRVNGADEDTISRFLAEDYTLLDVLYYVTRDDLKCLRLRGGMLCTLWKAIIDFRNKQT

OSR1 = OSR1 (Homo sapiens, UniProt O95747)
OSR1, sequence (O95747 whole entry): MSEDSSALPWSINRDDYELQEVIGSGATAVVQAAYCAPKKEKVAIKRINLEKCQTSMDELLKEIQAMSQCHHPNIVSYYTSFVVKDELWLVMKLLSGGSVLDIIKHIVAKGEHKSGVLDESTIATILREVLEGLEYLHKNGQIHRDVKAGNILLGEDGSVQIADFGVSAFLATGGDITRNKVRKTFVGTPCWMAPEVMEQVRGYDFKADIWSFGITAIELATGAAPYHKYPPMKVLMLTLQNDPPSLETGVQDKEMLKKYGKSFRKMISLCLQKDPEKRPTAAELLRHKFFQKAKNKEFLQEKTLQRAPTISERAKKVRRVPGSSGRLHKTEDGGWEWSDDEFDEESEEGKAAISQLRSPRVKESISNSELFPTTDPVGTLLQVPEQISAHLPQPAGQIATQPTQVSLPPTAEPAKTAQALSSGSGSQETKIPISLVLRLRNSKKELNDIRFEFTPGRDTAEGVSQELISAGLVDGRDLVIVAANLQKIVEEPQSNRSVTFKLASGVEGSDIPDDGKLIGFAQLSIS

CK2a2, sequence (P19784 whole entry): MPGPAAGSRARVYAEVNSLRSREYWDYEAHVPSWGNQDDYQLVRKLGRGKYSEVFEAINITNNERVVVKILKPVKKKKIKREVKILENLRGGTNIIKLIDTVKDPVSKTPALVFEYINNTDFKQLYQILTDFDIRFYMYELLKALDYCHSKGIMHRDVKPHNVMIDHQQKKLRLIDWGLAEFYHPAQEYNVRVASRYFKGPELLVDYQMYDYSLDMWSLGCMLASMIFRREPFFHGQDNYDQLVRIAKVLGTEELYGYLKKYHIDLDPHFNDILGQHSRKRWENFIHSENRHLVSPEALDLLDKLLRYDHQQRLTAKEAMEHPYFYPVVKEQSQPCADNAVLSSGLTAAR

Cc1cccc(-c2ccc(-c3cc4cnc(NCCCN5CCCC5=O)nc4n(CCCCN)c3=O)c(Cl)c2)n1 [compound 27, MR30]
ΔTm MR30 (27) (BRD4): -3.9 °C | ΔTm MR30 (27) (CK2a2): -6.3 °C | ΔTm MR30 (27) (CaMK4): 2.5 °C | ΔTm MR30 (27) (DMPK1): -1.4 °C | ΔTm MR30 (27) (MAP3K5): 9.2 °C | ΔTm MR30 (27) (OSR1): -1.1 °C

Cc1cccc(-c2ccc(-c3cc4cnc(Nc5cc(C(F)(F)F)ccc5C)nc4n(CCCCN)c3=O)c(Cl)c2)n1 [compound 28, 8-(4-Aminobutyl)-6-(2-chloro-4-(6-methylpyridin-2-yl)phenyl)-2-((2-methyl-5-(trifluoromethyl)phenyl)amino)pyrido[2,3-d]pyrimidin-7(8H)-one]
ΔTm 28 (BRD4): -3.7 °C | ΔTm 28 (CK2a2): -4.2 °C | ΔTm 28 (CaMK4): 3.9 °C | ΔTm 28 (DMPK1): -2.4 °C | ΔTm 28 (MAP3K5): 12.2 °C | ΔTm 28 (OSR1): 0.1 °C

Cc1cccc(-c2ccc(-c3cc4cnc(NCCCN5CCNCC5)nc4n(CCCCN)c3=O)c(Cl)c2)n1 [compound 29, 8-(4-Aminobutyl)-6-(2-chloro-4-(6-methylpyridin-2-yl)phenyl)-2-((3-(piperazin-1-yl)propyl)amino)pyrido[2,3-d]pyrimidin-7(8H)-one]
ΔTm 29 (BRD4): -2.2 °C | ΔTm 29 (CK2a2): -1.6 °C | ΔTm 29 (CaMK4): 1.5 °C | ΔTm 29 (DMPK1): -1.3 °C | ΔTm 29 (MAP3K5): 9.6 °C | ΔTm 29 (OSR1): 0.3 °C

Cc1cccc(-c2ccc(-c3cc4cnc(Nc5ccc(CCCO)cc5)nc4n(CCCCN)c3=O)c(Cl)c2)n1 [compound 30, 8-(4-Aminobutyl)-6-(2-chloro-4-(6-methylpyridin-2-yl)phenyl)-2-((4-(3-hydroxypropyl)phenyl)amino)pyrido[2,3-d]pyrimidin-7(8H)-one]
ΔTm 30 (BRD4): -2.4 °C | ΔTm 30 (CK2a2): -1.8 °C | ΔTm 30 (CaMK4): 5.5 °C | ΔTm 30 (DMPK1): -5.0 °C | ΔTm 30 (MAP3K5): 13.1 °C | ΔTm 30 (OSR1): 2.3 °C

Cc1cccc(-c2ccc(-c3cc4cnc(Nc5ccc(O)cc5)nc4n(CCCCN)c3=O)c(Cl)c2)n1 [compound 31, 8-(4-Aminobutyl)-6-(2-chloro-4-(6-methylpyridin-2-yl)phenyl)-2-((4-hydroxyphenyl)amino) pyrido[2,3-d]pyrimidin-7(8H)-one]
ΔTm 31 (BRD4): -1.6 °C | ΔTm 31 (CK2a2): -0.9 °C | ΔTm 31 (CaMK4): 5.0 °C | ΔTm 31 (DMPK1): -2.0 °C | ΔTm 31 (MAP3K5): 12.3 °C | ΔTm 31 (OSR1): 3.1 °C

Cc1cccc(-c2ccc(-c3cc4cnc(Nc5ccc(C)c(O)c5)nc4n(CCCCN)c3=O)c(Cl)c2)n1 [compound 32, 8-(4-Aminobutyl)-6-(2-chloro-4-(6-methylpyridin-2-yl)phenyl)-2-((3-hydroxy-4-methylphenyl)amino)pyrido[2,3-d]pyrimidin-7(8H)-one]
ΔTm 32 (BRD4): -2.7 °C | ΔTm 32 (CK2a2): -1.6 °C | ΔTm 32 (CaMK4): 4.9 °C | ΔTm 32 (DMPK1): -4.5 °C | ΔTm 32 (MAP3K5): 12.7 °C | ΔTm 32 (OSR1): 3.1 °C
